Data: US9284281B2, “Indication of naphtho[2,3-F]quinoxaline-7,12-dione compound in alleviating pain” (NATIONAL CENTRAL UNIVERSITY, priority 2014, dated 2016)

What was measured:
Type in all cases: in vivo
[1] = test system: CD-1 mice; assay: Neuropathic pain: chronic constriction injury (CCI) of the sciatic nerve, mechanical hyperalgesia by von Frey filaments; details: for paw withdrawal threshold (PWT): one week after CCI
Text: The assessment of the effectiveness of the compound for alleviating neuropathic pain used the animal model of chronic constriction injury (CCI) of the sciatic nerve, which was established by Bennett and Xie (1988). After the surgery, the mice developed long-lasting hypersensitivity to mechanical stimuli (chronic mechanical hyperalgesia), even being lightly touched. The mechanical hyperalgesia test was used to evaluate the analgesic effect of the compound.
The mice, after a week following the surgery, were intraplantarly injected with a series of different dosages of the naphtho[2,3-f]quinoxaline-7,12-dione compound, […], or the mice were injected with 2.2 μg/kg of compound intrathecally, or with 43 μg/kg of the compound intraperitoneally. The hypersensitivity to mechanical stimuli was measured using von Frey filaments at 60 minutes after the injection. The mice injected with saline following surgery were the control group and the other mice injected with gabapentin following surgery were the positive control group.
(§1) 2.2 μg/kg of the compound was administered to the mice by intraplantar injection about 5 minutes prior to the injection of the acid solution. An hour after the injection of the acid, the hypersensitivity of the mice to mechanical stimuli was measured using von Frey filaments (Touch-Test North Coast Medical, Inc., Margan Hill, Calif.). The mice were placed in transparent plastic chambers (10×8×10 cm) on a metal mesh floor at least 30 minutes per day for 2 days to acclimatize them to the testing room prior to the test. 60 minutes after the mice were administered with the compound, the mechanical hyperalgesia was assessed through the measurement of paw withdrawal frequencies by a sequential series of von Frey filaments of weights 0.6, 1.0, 1.4, 2.0 and 4.0 g applied perpendicularly to the plantar surface of the paw. The paw was briefly stimulated with force sufficient to slightly bend the filaments and a single trial consisted of repeated applications of the von Frey filaments five times, each application lasting for about 5 seconds. The occurrence of paw withdrawal resulting from the stimulation or removing the stimulation for each trial was quantified as a percentage response frequency for each filament. When the frequency was more than 50%, the weight of the von Frey filaments was determined as the paw withdrawal threshold (PWT). To make sure all the mice were under normal physical conditions, all housing conditions complied with general feeding standards, and the temperature and illumination were maintained in a suitable range.
According to the method described by Bennett and Xie, Pain, 1988, 33, 87-107, 8 to 12-week-old CD-1 mice were subjected to the chronic constriction injury (CCI) of the sciatic nerve, which is an animal model inducing chronic neuropathic pain. To anesthetize the mice, each of the mice was injected with 240 mg/kg of 2,2,2-tribromoethanol (Avertin). Then three ligatures were loosely tied around the sciatic nerve of the mouse with chromic gut. The surgical procedure for the Sham (non ligation) control group was identical to that mentioned above except that the sciatic nerves were not ligated. A week after the mice in the experimental (CCI+compound) group had chronic constriction injury of sciatic nerves, the compound was intraplantarly, intrathecally, or intraperitoneally injected into the mice. 60 minutes after the injection, the mice were directly subjected to the hypersensitivity test to mechanical stimuli. The mice under the surgery treated with saline were the CCI group; the mice treated with gabapentin were the positive control (CCI+Gabapentin) group.

[2] = test system: CD-1 mice; assay: Nociceptive pain: acute pain induced by pH 5.0 acid solution, mechanical hyperalgesia by von Frey filaments; details: for paw withdrawal threshold (PWT): control 4.0±0 g; for effective dosage: intraplantar, acute pain induced by acid solution
Procedure: Naphtho[2,3-f]quinoxaline-7,12-dione compound was intraplantarly injected into the right hind paws of 8 to 12-week-old CD-1 mice. 5 minutes after the injection, 25 μL of pH 5.0 acid solution was intraplantarly injected into each of the mice. About 60 minutes later, the mice were directly tested with the hypersensitivity to mechanical stimuli using von Frey filaments (Touch-Test North Coast Medical, Inc., Margan Hill, Calif.). The control group was conducted under the same conditions except it was treated with a compound-free saline. The results are shown in FIG. 1, where the injection of 25 μL of the pH 5.0 acid solution induced mechanical hyperalgesia in the right hind paw of the mice, and the paw withdrawal threshold (PWT) of these mice was 1.1±0.065 g. By injecting 2.2 μg/kg of the naphtho[2,3-f]quinoxaline-7,12-dione (NSC745887, D1) compound intraplantarly into the right hind paws of the mice, the paw withdrawal threshold of those mice recovered to 4.0±0 g (PWT of control group mice was 4.0±0 g).
25 μL of acid solution with a pH of 5.0 was injected into 8 to 12-week-old CD-1 mice in order to induce mechanical hyperalgesia. Mice injected with saline were the control group; the ones that were injected with compound only were compound group; the ones that were injected with only the acid solution were the acid group and those injected with both compound and the acid solution were the acid+compound group.
The above-mentioned 1 M of pH 5.0 solution was prepared by dissolving 1.952 g of 2-(N-morpholino)ethanesulfonic acid (MES) in 10 mL of sterilized secondary water. The pH of the solution was adjusted to 5.0 using 1N NaOH solution. Before injection, pH5.0 was diluted with saline into 10 mM.
as §1

[3] = test system: mice; assay: Inflammatory pain: chronic inflammatory pain induced by Complete Freund's Adjuvant (CFA), mechanical hyperalgesia by von Frey filaments
Procedure: When 50% CFA was intraplantarly injected into the mouse, paw edema and chronic mechanical hyperalgesia were developed in the tested mice. Different dosages of the naphtho[2,3-f]quinoxaline-7,12-dione compound, 0.22, 2.2, 22 μg/kg were intraplantarly injected into mouse hindpaw, followed by 50% CFA injection. At 60 minutes after the CFA injection, the hypersensitivity of the mice to mechanical stimuli was measured using von Frey filaments.
as §1
To induce paw edema and chronic inflammatory pain, 25 μL of 50% Complete Freund's Adjuvant (CFA) in saline was intraplantarly injected into the right hind paw of the mouse. […] 60 minutes after the CFA injection, the hypersensitivity to mechanical stimuli was measured using von Frey filaments.

[4] = 2.2 μg/kg intraplantar once every week for three weeks, FIG. 3

## Cc1nc2ccc3c(c2nc1C)C(=O)c1ccccc1C3=O [C3, 2,3-dimethylnaphtho[2,3-f]quinoxaline-7,12-dione]
[1]; 24 μg/kg intraplantar, FIG. 2B
  paw withdrawal threshold (PWT): 1.4 g
[2]; 24 μg/kg intraplantar, then pH 5.0 acid solution, FIG. 1B
  paw withdrawal threshold (PWT): 2.0 ± 0 g
[2]
  effective dosage: 24 µg/kg
[3]; 24 μg/kg intraplantar before CFA, FIG. 4B
  paw withdrawal threshold (PWT): 1.4 g

## O=C1c2ccccc2C(=O)c2c1ccc1nccnc21 [D1, naphtho[2,3-f]quinoxaline-7,12-dione]
[1]; 2.2 μg/kg intraplantar once every week for three weeks
  tolerance to the compound: no obvious indication that the mice developed tolerance
[1]; [4]
  paw withdrawal threshold (PWT), first week: 3.3 ± 0.67 g
  paw withdrawal threshold (PWT), second week: 3.3 ± 0.67 g
  paw withdrawal threshold (PWT), third week: 3.0 ± 0.1 g
[1]; 2.2 μg/kg intraplantar, 60 min after injection, FIG. 2A, CCI 0.9±0.23 g, control 3.6±0.29 g
  paw withdrawal threshold (PWT): 3.3 ± 0.67 g
[1]; 2.2 μg/kg intraplantar, FIG. 2B, CCI 0.9±0.23 g
  paw withdrawal threshold (PWT): 2.0 ± 0 g
[1]; 2.2 μg/kg intrathecal, FIG. 2A
  paw withdrawal threshold (PWT): 2.0 g
[1]; 22 μg/kg intraplantar, FIG. 2A
  paw withdrawal threshold (PWT): 3.3 ± 0.67 g
[1]; 43 μg/kg intraperitoneal
  inhibition of mechanical hyperalgesia induced by CCI: completely inhibited mechanical hyperalgesia
[2]; 2.2 μg/kg intraplantar, 5 min before pH 5.0 acid solution, about 60 min later, acid only 1.1±0.065 g
  paw withdrawal threshold (PWT): 4.0 ± 0 g
[2]
  effective dosage: 2.2 µg/kg
[2]; sole injection of the compound without the acid solution, did not induce pain
  paw withdrawal threshold (PWT), compound without acid solution: 4.0 ± 0 g
[3]; 2.2 μg/kg intraplantar before 50% CFA, 60 min after CFA, FIG. 4A, CFA 0.4±0.033 g, control 3.8±0.171 g
  paw withdrawal threshold (PWT): 1.1 ± 0.15 g
[3]; 22 μg/kg intraplantar before 50% CFA, FIG. 4A
  paw withdrawal threshold (PWT): 2.0 ± 0.411 g
[3]; 22 μg/kg intraplantar before CFA, FIG. 4B, control 3.8±0.171 g
  paw withdrawal threshold (PWT): 2.3 g

## O=C1c2ccccc2C(=O)c2c1ccc1[nH]c(=O)c(=O)[nH]c21 [D2, naphtho[2,3-f]quinoxaline-2,3,7,12(1H,4H)-tetraone]
[1]; 24.3 μg/kg intraplantar, FIG. 2B
  paw withdrawal threshold (PWT): 2.0 ± 0 g
[2]; 24.3 μg/kg intraplantar, then pH 5.0 acid solution, FIG. 1C
  paw withdrawal threshold (PWT): 4.0 ± 0 g
[2]
  effective dosage: 24.3 µg/kg
[3]; 24.3 μg/kg intraplantar before CFA, FIG. 4B
  paw withdrawal threshold (PWT): 1.0 g

## NCC1(CC(=O)O)CCCCC1 [gabapentin, reference compound]
[1]; intraperitoneal injection
  dose required to inhibit chronic mechanical hyperalgesia caused by CCI: at least 15,000 μg/kg
